# Measured values as given in patent US20240124483A1, “Methods for the Treatment of Fibrotic Disease” (SHY Therapeutics, LLC, priority 2021, published 2024).
# Where two headings read alike, the source gives them in different places.
# Columns and labels:
# KRas Q61H mutant = KRas Q61H mutant (Homo sapiens (Human), UniProt P01116, Q61H); test: Ras GTP Binding Domain Inhibition Assay, KRas Q61H mutant; details: 20 μM
# Protocol: A Ras Superfamily Activity Assay (as disclosed in International Application No. PCT/US2018/038613, filed Jun. 20, 2018, which is incorporated by reference in its entirety) was used as a specific assay to evaluate compounds against the following for the following Ras Superfamily proteins: KRas wild type, KRas Q61H mutant, KRas G12C mutant, KRas G12D mutant, Rac-1, and Rho-A.
# Buffer-I: • 25 mM Tris-HCl, pH 7.4 • 27 mM KCl • 137 mM NaCl • 1 mM MgCl2 • 1 mM DTT
# Buffer-II: • 50 mM Tris-HCl, pH 7.0 • 1 mM MgCl2 • 1 mM DTT
# The small GTPases proteins: KRas wild type. KRas Q61H mutant, KRas G12C mutant, KRas G12D mutants, Rac-1, and Rho-A were expressed as His-tagged proteins. In addition, the Guanosine nucleotide Exchange Factor (GEF) Sos protein (residues 556-1049) was expressed as a His-tagged protein. In cells, the guanine nucleotide exchange factor Sos protein promotes activation of Ras proteins by stimulating an exchange of GDP for GTP. The inclusion of Sos to the Ras GTP binding domain inhibition assay may be considered as an alternative representation of physiological cellular conditions for evaluating the inhibitory activity of some of the tested small molecules.
# For the assay, all purified small GTPases proteins were diluted in Buffer-I or Buffer-II to a final concentration of 10-30 μg/mL. 200 μL of each diluted protein was added to a nickel-coated 96-well plate and incubated overnight at 4° C. Then the protein solution was discarded and 200 μL of Buffer-I or Buffer-II was added to each well in the presence of 1% DMSO. Compounds to be tested were added to the protein-coated wells at final concentration of 20 μM, and incubated for 3 hours at room temperature with and without 10-30 μg/mL of Sos added to the final hour of the incubation. When performing IC50 measurements a serial dilution of all tested concentrations was added. Then Cy3-GTP or Cy5-GTP was added to each well to a final concentration of 100 nM. The labeled GTP was incubated for 45 minutes at room temperature. Following GTP incubation, wells were washed 3× in Buffer-I or Buffer-II and 200 μL of Buffer-I or Buffer-II was added to each well. Following washes, the amount of bound labeled-GTP was measured using a SpectraMax M3 (Molecular Devices).
# ERK1/2 phosphorylation = test: Western ERK1/2 Cell-Based Phosphorylation Assay; details: Homo sapiens, PANC-1, 6 hours, EGF 1.5 ng/ml, read-out: % inh of ERK1/2 phosphorylation in PANC-1
# Protocol: Cell lines: Human tumor-derived pancreatic cancer cell line Panc-1 was purchased from American Type Culture Collection and grown in complete DMEM-High Glucose, supplemented with penicillin (100 U/mL), streptomycin (100 μg/mL), and 10% heat-inactivated FBS at 37° C. in a humidified incubator with 5% CO2.
# (§1) Method: Cells were plated at 350000 cells/well density in a 12-well plate, allowed 3 hours to adhere to the plate, then starved in the appropriate medium in the presence of 0.5% FBS overnight. The small molecules to be tested were added to the cells in the final concentration of 10 μM in the presence of 0.3% DMSO for 6 hours incubation at 37° C. For IC50 value determination, serial dilutions of compounds were added to cells under the same conditions. Next, cells were stimulated with 1.5 ng/ml EGF for 15 minutes then cells were lysed with lysis buffer containing 1% Triton X-100, EDTA, and Halt™ Protease & Phosphatase Inhibitor Cocktail (Thermo Scientific). Protein concentration was assessed by BCA protein assay (Thermo Scientific). Phosphorylation level of ERK1/2 was determined by western blot.
# (§2) Western blot protocol: Equal amounts of protein (15-50 μg) were separated by SDS-PAGE and transferred to nitrocellulose membranes (Invitrogen by Thermo Fisher Scientific). The membrane was stained with Ponceau S Stain (Boston BioProducts) to verify uniform protein loading. Membranes were blocked with 10% milk and phosphorylation levels of ERK1/2 were assessed by incubating overnight at 4° C. with anti-phospho-p44/42 (Thr202/Tyr204) antibody (Cell Signaling) followed by HRP-conjugated secondary antibody (Jackson Immunoresearch, West Grove, PA). Bands were incubated in Amersham ECL Prime Western Blotting Detection Reagent (GE Healthcare) and visualized using the ChemiDoc MP imaging system (Bio-Rad).
# AKT phosphorylation = test: Western AKT Cell-Based Phosphorylation Assay; details: Homo sapiens, PANC-1, 6 hours, EGF 1.5 ng/ml, read-out: % inh of AKT phosphorylation in PANC-1
# Protocol: Human tumor-derived pancreatic cancer cell line Panc-1 was purchased from American Type Culture Collection and grown in complete DMEM-High Glucose supplemented with penicillin (100 U/mL), streptomycin (100 μg/mL), and 10% heat-inactivated FBS at 37° C. in a humidified incubator with 5% CO2.
# as §1, with “C.” for “C. For IC50 value determination, serial dilutions of compounds were added to cells under the same conditions.”, “Akt” for “ERK1/2”
# as §2, with “Akt” for “ERK1/2”, “anti-phospho-Akt (Ser473)” for “anti-phospho-p44/42 (Thr202/Tyr204)”
# [1] = + SOS, read-out: KRas Q61H mutant + SOS: % inh.
# [2] = without SOS, read-out: KRas Q61H mutant: % inh.
# KRas Q61H mutant, sequence (P01116 other isoform, or with tags, fused parts or gaps Q61H): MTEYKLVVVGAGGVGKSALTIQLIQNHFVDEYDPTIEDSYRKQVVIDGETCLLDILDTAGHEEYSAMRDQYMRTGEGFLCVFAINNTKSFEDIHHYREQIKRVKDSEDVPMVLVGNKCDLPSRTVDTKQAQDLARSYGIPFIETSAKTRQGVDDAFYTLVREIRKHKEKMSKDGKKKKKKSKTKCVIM
inhibition at 20 µM (KRas Q61H mutant; [1]),inhibition at 20 µM (KRas Q61H mutant; [2]),SMILES,inhibition at 10 µM (ERK1/2 phosphorylation),inhibition at 10 µM (AKT phosphorylation)
76 to 100%,46 to 75%,"Cc1c(-c2ccn(C(C)C)n2)sc2nc(-c3nccn3C)nc(NCC3COCCN3C)c12 (racemic) [Compound 24, rac-6-(1-Isopropyl-1H-pyrazol-3-yl)-5-methyl-2-(1-methyl-1H-imidazol-2-yl)-N-((4-methylmorpholin-3-yl)methyl)thieno[2,3-d]pyrimidin-4-amine]",0%,0%
76 to 100%,76 to 100%,"Cc1c(-c2ccn(C(C)C)n2)sc2nc(-c3nccn3C)nc(NCC3CN(C)CCO3)c12 (racemic) [Compound 25, rac-6-(1-Isopropyl-1H-pyrazol-3-yl)-5-methyl-2-(1-methyl-1H-imidazol-2-yl)-N-((4-methylmorpholin-2-yl)methyl)thieno[2,3-d]pyrimidin-4-amine]",0%,1 to 25%
76 to 100%,76 to 100%,"Cc1c(-c2ccn(C(C)C)n2)sc2nc(-c3nccn3C)nc(NCC3CCCO3)c12 (racemic) [Compound 26, rac-6-(1-Isopropyl-1H-pyrazol-3-yl)-5-methyl-2-(1-methyl-1H-imidazol-2-yl)-N-((tetrahydrofuran-2-yl)methyl)thieno[2,3-d]pyrimidin-4-amine]",0%,0%
76 to 100%,46 to 75%,"COCC1(OC)CCN(c2nc(-c3nccn3C)nc3sc(-c4ccn(C(C)C)n4)c(C)c23)C1 (racemic) [Compound 27, rac-6-(1-Isopropyl-1H-pyrazol-3-yl)-4-(3-methoxy-3-(methoxymethyl)pyrrolidin-1-yl)-5-methyl-2-(1-methyl-1H-imidazol-2-yl)thieno[2,3-d]pyrimidine]",1 to 25%,26 to 45%
76 to 100%,46 to 75%,"COCCn1ccc(-c2sc3nc(-c4nccn4C)nc(NC[C@H]4CC[C@H]4COC)c3c2C)n1 (racemic) [Compound 38, rac-6-(1-(2-Methoxyethyl)-1H-pyrazol-3-yl)-N-(((1S,2R)-2-(methoxymethyl)cyclobutyl)methyl)-5-methyl-2-(1-methyl-1H-imidazol-2-yl)thieno[2,3-d]pyrimidin-4-amine]",46 to 75%,0%
76 to 100%,76 to 100%,"COCCn1ccc(-c2sc3nc(-c4nccn4C)nc(N[C@@H]4CC[C@H](OC)C4)c3c2C)n1 (racemic) [Compound 39, rac-N-((1R,3S)-3-Methoxycyclopentyl)-6-(1-(2-methoxyethyl)-1H-pyrazol-3-yl)-5-methyl-2-(1-methyl-1H-imidazol-2-yl)thieno[2,3-d]pyrimidin-4-amine]",1 to 25%,76 to 100%
76 to 100%,26 to 45%,"COc1cccc(-c2sc3nc(-c4nccn4C)nc(N[C@@H]4CC[C@@H](OC)C4)c3c2-c2ccccc2)c1F (racemic) [Compound 41, 6-(2-Fluoro-3-methoxyphenyl)-N-((1R,3R)-3-methoxycyclopentyl)-2-(1-methyl-1H-imidazol-2-yl)-5-phenylthieno[2,3-d]pyrimidin-4-amine]",76 to 100%,76 to 100%
76 to 100%,26 to 45%,"COc1cccc(-c2sc3nc(-c4nccn4C)nc(N[C@@H]4CC[C@@H](OC)C4)c3c2C)c1F (racemic) [Compound 43, rac-6-(2-Fluoro-3-methoxyphenyl)-N-((1R,3R)-3-methoxycyclopentyl)-5-methyl-2-(1-methyl-1H-imidazol-2-yl)thieno[2,3-d]pyrimidin-4-amine]",46 to 75%,0%
76 to 100%,26 to 45%,"COc1cc(-c2sc3nc(-c4nccn4C)nc(N[C@@H]4CC[C@H](OC)C4)c3c2-c2ccccc2)ccn1 (racemic) [Compound 44, rac-N-((1R,3S)-3-Methoxycyclopentyl)-6-(2-methoxypyridin-4-yl)-2-(1-methyl-1H-imidazol-2-yl)-5-phenylthieno[2,3-d]pyrimidin-4-amine]",46 to 75%,76 to 100%
76 to 100%,46 to 75%,"COc1cc(-c2sc3nc(-c4nccn4C)nc(N[C@@H]4CC[C@@H](OC)C4)c3c2-c2ccccc2)ccn1 (racemic) [Compound 47, N-((1R,3R)-3-Methoxycyclopentyl)-6-(2-methoxypyridin-4-yl)-2-(1-methyl-1H-imidazol-2-yl)-5-phenylthieno[2,3-d]pyrimidin-4-amine]",76 to 100%,76 to 100%
46 to 75%,46 to 75%,"CO[C@H]1C[C@H](CNc2nc(-c3nccn3C)nc3sc(-c4ccn(C(C)C)n4)c(C)c23)C1 [Compound 16, 6-(1-Isopropyl-1H-pyrazol-3-yl)-N-(((1r,3r)-3-methoxycyclobutyl)methyl)-5-methyl-2-(1-methyl-1H-imidazol-2-yl)thieno[2,3-d]pyrimidin-4-amine]",76 to 100%,0%
46 to 75%,26 to 45%,"COc1cccc(Nc2nc(-c3nccn3C)nc3sc(-c4ccn(C(C)C)n4)c(C)c23)c1 [Compound 17, 6-(1-Isopropyl-1H-pyrazol-3-yl)-N-(3-methoxyphenyl)-5-methyl-2-(1-methyl-1H-imidazol-2-yl)thieno[2,3-d]pyrimidin-4-amine]",76 to 100%,46 to 75%
